Test results published in ChEMBL document CHEMBL3430912, “GSK Tres Cantos Anti-Kinetoplastid Screening (TCAKS) Data”.

What was measured:
[1] = tested on: Trypanosoma cruzi; assay: GSK_TCAKS: pIC50 Trypanosoma cruzi viability assay using beta-GAL activity. This assay was run at single shot at 5uM compound concentration per well. The biological reagents consisted of NIH-3T3 host cells and trypomastigotes parasitic cells; both cell types were set to a 3.3 * 10^5 cells/mL dilution in assay DMEM by means of a CASY cell counter device using a 60um capillary. 6 uL of the mixture were dispensed per well (about 1 * 10^3 host-cells and 1 * 10^3 parasites) with a Multidrop Combi dispenser. […] In all wells, the percentage of DMSO never exceeded 0.5%. Plates incubated for four days at 37C, 5% CO2. The substrate used for the assay fluorescence intensity (FLINT) readout was resorufin-beta-D-galactopiranoside (Sigma-Aldrich) at 5uM per well. It was diluted in PBS supplemented with the soft detergent Igepal (Fluka).; type: functional, organism-based, Mus musculus; details: Tulahuen, NIH3T3
[2] = tested on: Trypanosoma brucei brucei; assay: GSK_TCAKS: pIC50 Trypanosoma brucei viability assay using luminiscence. Assay plates (1536-well) were prepared. T. brucei cultures were harvested and counted in a CASY cell counter. A parasite suspension was prepared at a final concentration of 5 * 10^4 cells/mL in complete HMI9 medium and 6uL was dispensed to all wells containing compounds using a Multidrop Combi dispenser. 6uL of HMI9 media with 0.4% DMSO were dispensed to control columns. Plates were incubated for 24 h at 37C, 5% CO2 then tempered for 10 min at room temperature. ATP content was quantified by adding 4 uL of CellTiter-Glo Reagent (Promega) according to the manufacturer's instructions. Luminescence was measured using a ViewLux.; type: functional, organism-based; details: Lister 427, CASY
[3] = GSK_TCAKS: pIC50 HepG2 human cell line viability assay using luminiscence. […] Seeding density was checked to ensure that new mono-layers were not more than 50% confluent at the time of harvesting. Cell suspension was added to 500 mL of the same medium at a final density of 1.2 * 10^5 cells/mL. This cell suspension was dispensed (25 uL, 3000 cells per well) into 384-well clear-bottom plates using a Multidrop Combi dispenser. Prior to addition of the cell suspension, the screening compounds (250 nL) were pre-dispensed into the plates with an Echo liquid handler. Plates were incubated for 48 h at 37C, 5% CO2. After incubation, plates equilibrated at room temperature for 30 min before proceeding to develop the luminescent signal. The signal developer, CellTiter-Glo Reagent, was allowed to equilibrate at room temperature for 30 min and added to the plates (25uL per well) using a Multidrop Combi dispenser. Plates were left for 10 min at room temperature for stabilization and then read using a ViewLux.; type: toxicity, cell-based
[4] = tested on: Leishmania donovani; assay: (§1) GSK_TCAKS: pIC50 Leishmania donovani Imaging: Infected Macrophages. Assay plates (384-well) were prepared by adding 250nL of compound to each well. For single shot assay, the final compound concentration was 5 uM. […] Automated image analysis was performed with a script developed on Acapella High Content Imaging and Analysis Software (PerkinElmer). Output: Percent of infected macrophage cells were reported for each well.; type: functional, organism-based, Homo sapiens; details: THP-1
[5] = tested on: Leishmania donovani; assay: as §1, with “Amastigotes/Macrophages.” for “Infected Macrophages.”, “Average number” for “Percent”, “amastigotes per” for “infected”, “cell” for “cells”; type: functional, organism-based, Homo sapiens; details: THP-1
[6] = tested on: Leishmania donovani; assay: GSK_TCAKS: pIC50 Leishmania donovani viability assay using fluorescence intensity. Assay plates (1536-well) were prepared by adding 30nL per well of compound. For single shot assay, the final compound concentration was 5uM. […] Briefly, eGFP LdBOB axenic amastigotes were harvested, fixed and counted in a CASY cell counter (Roche-Applied Science). A final concentration of 1.5 * 10^5 cells per well were prepared in amastigote media containing 500 U/mL penicillin/streptomycin (Invitrogen) and 6uL was dispensed to each experimental well using a Multidrop Combi dispenser (Thermo Scientific). 6uL of assay media was dispensed to control columns used as reference for 100% compound response. Following incubation for 72 h at 37C, 5% CO2, 2 uL of resazurin was added to each well at a final concentration of 0.5 mM in phosphate buffered saline (PBS) with IGEPAL (Sigma-Aldrich), 0.05% (v/v).; type: functional, organism-based
[7] = tested on: Leishmania donovani; assay: as §1, with “THP-1 Host” for “Infected”, “THP-1 cell count” for “Percent of infected macrophage cells”; type: functional, organism-based, Homo sapiens
[8] = tested on: Trypanosoma cruzi; assay: (§2) GSK_TCAKS: pIC50 H2C9 Imaging: H9c2 Host Cardiomyocytes. […] Cells were then washed once with PBS before infection. T. cruzi trypomastigotes, collected at days 5 to 8 after infection from LLC-MK2 parasite infected cultures, were allowed to swim out for 4h at 37C from a centrifuged pellet (2,500 rpm/10 min/room temperature). Trypomastigotes were then collected and counted in a CASY Cell Counter. Trypomastigotes, in supplemented DMEM, were added to H9c2 cultures in a multiplicity of infection of 1 and incubated for 18 h. Cells were washed once with PBS before incubation of the infected H9c2 monolayer with trypsin (Life-Technologies) to detach cells from the flask. Cells were counted in a CASY Cell Counter using a 150 um capillary and their density set at 5 * 10^4 cells per mL in supplemented assay DMEM. Infected H9c2 were dispensed into 384-well poly-lysine coated assay plates at 50uL per well using a Multidrop Combi dispenser. After seeding them, the plates were incubated at 37C, 5% CO2 for 72h. Cultures were then fixed and stained by addition of 50 uL of a solution containing 8% formaldehyde and 4 uM DRAQ5 DNA dye (BioStatus, UK) per well. […] Five images were collected per well for reliable statistical analysis. Automated image analysis was performed with a script developed on Acapella High Content Imaging and Analysis Software (PerkinElmer). Output: Number of H9c2 Host Cardiomyocytes nuclei to determine drug-related cytotoxicity.; type: functional, organism-based, Rattus norvegicus; details: H9c2, 4 h
[9] = tested on: Trypanosoma cruzi; assay: as §2, with “Trypanosoma cruzi” for “H2C9”, “Amastigotes/Cell.” for “H9c2 Host Cardiomyocytes.”, “number” for “Number”, “amastigotes per cell as infection level measurement.” for “H9c2 Host Cardiomyocytes nuclei to determine drug-related cytotoxicity.”; type: functional, organism-based, Rattus norvegicus; details: H9c2, 4 h
[10] = tested on: Trypanosoma brucei brucei; assay: GSK_TCAKS: pIC50 Trypanosoma brucei viability assay using fluorescence intensity. Assay plates (1536-well) were prepared by dispensing 25nL of compound solution per well using an Echo acoustic dispenser (Labcyte).; type: functional, organism-based; details: Lister 427, 2 h
[11] = biological target: Sterol 14-alpha demethylase (Trypanosoma cruzi (strain CL Brener), UniProt Q7Z1V1); assay: GSK_TCAKS: pIC50 CYP51 from Trypanosoma cruzi.; type: functional
Chain of Sterol 14-alpha demethylase (Q7Z1V1 whole entry): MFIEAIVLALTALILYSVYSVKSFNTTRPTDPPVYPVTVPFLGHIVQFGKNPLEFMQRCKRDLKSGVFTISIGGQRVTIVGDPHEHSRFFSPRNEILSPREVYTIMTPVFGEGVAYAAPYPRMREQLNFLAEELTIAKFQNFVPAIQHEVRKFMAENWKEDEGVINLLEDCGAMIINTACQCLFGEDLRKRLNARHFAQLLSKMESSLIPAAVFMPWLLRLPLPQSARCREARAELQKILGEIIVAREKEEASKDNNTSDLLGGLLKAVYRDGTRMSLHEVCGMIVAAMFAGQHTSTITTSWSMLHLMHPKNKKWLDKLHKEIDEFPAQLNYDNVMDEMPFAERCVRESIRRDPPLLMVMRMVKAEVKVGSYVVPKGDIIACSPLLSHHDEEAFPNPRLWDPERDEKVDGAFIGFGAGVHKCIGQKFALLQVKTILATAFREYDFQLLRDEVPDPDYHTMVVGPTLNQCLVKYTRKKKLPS

[12] = tested on: Trypanosoma cruzi; assay: as §2, with “Trypanosoma cruzi” for “H2C9”, “Infected Cells.” for “H9c2 Host Cardiomyocytes.”, “percentage” for “Number”, “infected cells per well as a second infection marker.” for “H9c2 Host Cardiomyocytes nuclei to determine drug-related cytotoxicity.”; type: functional, organism-based, Rattus norvegicus; details: H9c2, 4 h

Row | SMILES | IC50 [1] [µM] | IC50 [2] [µM] | IC50 at 48 h [3] [µM] | IC50 [4] [µM] | IC50 [5] [µM] | IC50 [6] [µM] | IC50 [7] [µM] | IC50 [8] [µM] | IC50 [9] [µM] | IC50 [10] [µM] | IC50 [11] [µM] | IC50 [12] [µM]
1 | O=C(Nc1nc(-c2ccccn2)cs1)c1ccccc1-n1cnnn1 | 3.55 | 0.631 | 1.58 | 6.31 | 3.98 | 3.16 | 5.01 | 5.01 | 2 | 0.631 | > 100 | 3.16
2 | Cc1ccccc1CNC(=O)CN(Cc1ccccn1)Cc1ccccn1 | 5.01 | 20 | > 158 | 6.31 | 3.98 | 10 | > 79.4 | > 79.4 | 6.31 | 6.31 | 100 | 15.8
3 | O=C(CN(Cc1ccccn1)Cc1ccccn1)NC1Cc2ccccc2C1 | 5.01 | 12.6 | > 158 | 5.01 | 5.01 | 12.6 | > 79.4 | > 79.4 | 6.31 | 20 | 79.4 | 12.6
4 | CC(CCc1ccccc1)NC(=O)CN(Cc1ccccn1)Cc1ccccn1 (centres undefined) | 2.51 | 5.01 | > 158 | 3.16 | 3.16 | 7.94 | 20 | > 79.4 | 3.16 | 10 | 63.1 | 10
5 | O=C(CN(Cc1ccccn1)Cc1ccccn1)NCc1ccc2c(c1)OCO2 | 7.94 | 20 | > 158 | 7.94 | 6.31 | 12.6 | > 79.4 | > 79.4 | 6.31 | 6.31 | 100 | 12.6
6 | O=C(CN(Cc1ccccn1)Cc1ccccn1)NCc1csc(-c2cccs2)n1 | 3.98 | 15.8 | > 100 | 6.31 | 3.16 | 12.6 | > 50.1 | > 50.1 | 2.51 | 20 | 39.8 | 6.31
7 | Cc1nn(-c2ccccc2)nc1CNC(=O)CN(Cc1ccccn1)Cc1ccccn1 | 3.98 | 10 | > 126 | 5.01 | 5.01 | 7.94 | > 63.1 | > 63.1 | 3.16 | 31.6 | 25.1 | 10
8 | O=C(CN(Cc1ccccn1)Cc1ccccn1)NCc1ccc(-c2csnn2)cc1 | 3.98 | 7.94 | 25.1 | 5.01 | 5.01 | 7.94 | > 79.4 | > 79.4 | 7.94 | 12.6 | 39.8 | 63.1
9 | O=C(CSc1nnc(-c2ccc3c(c2)OCO3)o1)N(Cc1ccco1)CC(F)(F)F | 10 | > 39.8 | > 100 | 7.94 | 3.16 | 15.8 | > 50.1 | > 50.1 | 2.51 | > 39.8 | 25.1 | 3.16
10 | N#Cc1ccccc1S(=O)(=O)N1CCN(C(=O)CNC(=O)c2ccc3c(c2)OCO3)CC1 | 15.8 | > 39.8 | > 100 | 5.01 | 1.58 | 0.631 | > 50.1 | > 50.1 | 0.631 | > 39.8 | 79.4 | 1
11 | COc1ccc(NC(=O)c2ccc(NC(=O)CN(c3ccccc3C)S(C)(=O)=O)cc2)cc1 | 31.6 | 0.794 | 39.8 | > 50.1 | 7.94 | > 50.1 | > 50.1 | 25.1 | 20 | 0.2 | 6.31 | 25.1
12 | COc1ccc(S(=O)(=O)Nc2ccc(C(=O)Nc3nc(-c4ccccn4)cs3)cc2)cc1 | 0.891 | 0.631 | 63.1 | 0.398 | 0.158 | 1 | 10 | 6.31 | 0.631 | 0.794 | 0.398 | 0.794
13 | COc1cccc2sc(CN(C)C(=O)C3CNCCN3c3ccc(F)cc3)c(C)c12 (centres undefined) | 0.398 | 0.251 | 12.6 | 6.31 | 3.98 | 31.6 | 12.6 | 7.94 | 0.158 | 0.158 | 0.251 | 0.2
14 | CCCCCNC(=O)c1c[nH]c2ccc(S(=O)(=O)N(C)c3ccc(OCC)cc3)cc2c1=O | 31.6 | 0.251 | > 100 | > 50.1 | > 50.1 | > 50.1 | > 50.1 | > 50.1 | > 50.1 | 0.316 | 1.58 | > 50.1
15 | CCOc1ccc2nc(NC(=O)c3ccc([N+](=O)[O-])s3)sc2c1 | 1.78 | 2.51 | 31.6 | 6.31 | 5.01 | 2.51 | > 50.1 | 10 | 1 | 1.26 | > 100 | 1.26
16 | O=C(NCC(c1cccs1)N1CCOCC1)c1ccc([N+](=O)[O-])o1 (centres undefined) | 3.16 | 0.316 | 20 | 25.1 | 15.8 | 31.6 | 25.1 | 5.01 | 15.8 | 0.316 | 10 | 15.8
17 | CCN(CC)c1ncc(C(=O)c2ccc([N+](=O)[O-])o2)s1 | 3.98 | 0.398 | 15.8 | 10 | 10 | 5.01 | 6.31 | 5.01 | 7.94 | 0.1 | 39.8 | 12.6
